Consider 21 molecules from US20240247015A1, “PHOSPHORUS DERIVATIVES AS NOVEL SOS1 INHIBITORS” (BAYER AKTIENGESELLSCHAFT, priority 2021, published 2024).

Molecules are shown by their SMILES.

For orientation: IC50 means the concentration at which inhibition is half-maximal.

Chain of interaction of human SOS1 (SOS1) with human K-RasG12C (Q07889 564-1049 limits assumed): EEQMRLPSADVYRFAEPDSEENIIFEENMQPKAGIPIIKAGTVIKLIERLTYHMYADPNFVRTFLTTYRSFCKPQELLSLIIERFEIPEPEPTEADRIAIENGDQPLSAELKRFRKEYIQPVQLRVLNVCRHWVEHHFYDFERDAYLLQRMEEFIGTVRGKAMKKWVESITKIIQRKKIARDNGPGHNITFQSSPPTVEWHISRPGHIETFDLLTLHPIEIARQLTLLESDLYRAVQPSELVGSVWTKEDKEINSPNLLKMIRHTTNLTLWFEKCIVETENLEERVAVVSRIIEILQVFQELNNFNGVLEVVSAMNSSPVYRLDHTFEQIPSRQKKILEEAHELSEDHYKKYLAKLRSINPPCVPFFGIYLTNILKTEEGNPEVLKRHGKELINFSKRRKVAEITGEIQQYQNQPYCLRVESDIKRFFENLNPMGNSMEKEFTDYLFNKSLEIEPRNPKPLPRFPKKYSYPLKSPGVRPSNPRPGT

For the assay, the target named is interaction of human SOS1 (SOS1) with human K-RasG12C (Homo sapiens (Human), UniProt Q07889). The experiment in a line: Biochemical assay: hK-RasG12C interaction assay with hSOS1 (HTRF). In kind it is binding. The note with it: GST-hK-RasG12C with His-hSOS1, 60 min incubation at 20° C., mean, read-out: K-RasG12C - SOS interaction assay IC50 (mean). In outline:
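Compounds, duplicates at 11 concentrations from 0.073 nM to 20 µM, were preincubated 2 min with 10 nM GST-hK-RasG12C, then 20 nM His-hSOS1 was added, all at 20 °C. After 60 min, 665/620 nm HTRF ratio normalized to DMSO and SOS1-free controls; IC50 by 4-parameter fit.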
For orientation: TR-FRET usually uses a lanthanide donor and a delayed reading to cut background.
On to `Cc1nc(N[C@H](C)c2cccc(C(F)F)c2F)c2cc(P3(=O)CCCC3)ncc2n1` [Example 107, 1-[4-{{(1R)-1-[3-(difluoromethyl)-2-fluorophenyl]ethyl}amino)-2-methylpyrido[3,4-d]pyrimidin-6-yl]-1lambda^5-phospholan-1-one], for which the IC50 amounted to 20.5 nM.
Under `Cc1nc(N[C@H](C)c2cccc(C(F)F)c2F)c2cc(P(=O)(C(C)C)C(C)C)ncc2n1` [Example 108, N-{(1R)-1-[3-(difluoromethyl)-2-fluorophenyl]ethyl}-6-[di(propan-2-yl)phosphoryl]-2-methylpyrido[3,4-d]pyrimidin-4-amine] stands 153 nM; under `Cc1nc(N[C@H](C)c2cccc(C(F)(F)C(=O)C(C)C)c2F)c2cc(P(C)(C)=O)ncc2n1` [Example 109, 1-{3-[(1R)-1-{[6-(dimethylphosphoryl)-2-methylpyrido[3,4-d]pyrimidin-4-yl]amino}ethyl]-2-fluorophenyl}-1,1-difluoro-3-methylbutan-2-one], 33.3 nM; under `Cc1nc(N[C@H](C)c2cccc(C(F)(F)C(=O)C(C)(C)C)c2F)c2cc(P(C)(C)=O)ncc2n1` [Example 110, 1-{3-[(1R)-1-{[6-(dimethylphosphoryl)-2-methylpyrido[3,4-d]pyrimidin-4-yl]amino}ethyl]-2-fluorophenyl}-1,1-difluoro-3,3-dimethylbutan-2-one], 56.8 nM.
Under `Cc1nc(N[C@H](C)c2cccc(C(F)F)c2F)c2cc(P(C)(=O)C(C)C)ncc2n1` (stereo partly drawn) [Example 114, N-{(1R)-1-[3-(difluoromethyl)-2-fluorophenyl]ethyl}-2-methyl-6-[methyl(propan-2-yl)phosphoryl]pyrido[3,4-d]pyrimidin-4-amine] stands 66.5 nM; under `CCP(C)(=O)c1cc2c(N[C@H](C)c3cccc(C(F)F)c3F)nc(C)nc2cn1` (stereo partly drawn) [Example 117, N-{(1R)-1-[3-(difluoromethyl)-2-fluorophenyl]ethyl}-6-[ethyl(methyl)phosphoryl]-2-methylpyrido[3,4-d]pyrimidin-4-amine], 56.9 nM; under `Cc1nc(N[C@H](C)c2cccc(C(F)(F)F)c2Cl)c2cc(P(C)(C)=O)ncc2n1` [Example 120, N-{(1R)-1-[2-chloro-3-(trifluoromethyl)phenyl]ethyl}-6-(dimethylphosphoryl)-2-methylpyrido[3,4-d]pyrimidin-4-amine], 36.7 nM.
With `COC(C)(C)C(F)(F)c1cccc([C@@H](C)Nc2nc(C)nc3cnc(P(C)(C)=O)cc23)c1F` [Example 121, N-{(1R)-1-[3-(1,1-difluoro-2-methoxy-2-methylpropyl)-2-fluorophenyl]ethyl}-6-(dimethylphosphoryl)-2-methylpyrido[3,4-d]pyrimidin-4-amine], the IC50 was 87.1 nM.
For the molecule `COC(C)(C)C(F)(F)c1cccc([C@@H](C)Nc2nc(C)nc3cnc(P4(=O)CCCC4)cc23)c1F` [Example 122, 1-[4-({(1R)-1-[3-(1,1-difluoro-2-methoxy-2-methylpropyl)-2-fluorophenyl]ethyl}amino)-2-methylpyrido[3,4-d]pyrimidin-6-yl]-1lambda^5-phospholan-1-one], the IC50 was found to be 62.6 nM.
Under `CCP(=O)(CC)c1cc2c(N[C@H](C)c3cccc(C(F)(F)C(C)(C)O)c3F)nc(C)nc2cn1` [Example 123, 1-{3-[(1R)-1-{[6-(diethylphosphoryl)-2-methylpyrido[3,4-d]pyrimidin-4-yl]amino}ethyl]-2-fluorophenyl}-1,1-difluoro-2-methylpropan-2-ol] stands 59 nM; under `Cc1nc(N[C@H](C)c2cccc(C(F)(F)CO)c2F)c2cc(P(C)(C)=O)nc(C)c2n1` [Example 124, 2-{3-[(1R)-1-{[6-(dimethylphosphoryl)-2,8-dimethylpyrido[3,4-d]pyrimidin-4-yl]amino}ethyl]-2-fluorophenyl}-2,2-difluoroethan-1-ol], 16.7 nM; under `Cc1nc(N[C@H](C)c2cccc(C(F)F)c2F)c2cc(P(C)(C)=O)c(C(F)(F)F)nc2n1` [Example 125, N-{(1R)-1-[3-(difluoromethyl)-2-fluorophenyl]ethyl}-6-(dimethylphosphoryl)-2-methyl-7-(trifluoromethyl)pyrido[2,3-d]pyrimidin-4-amine], 44.3 nM.
With `Cc1nc(N[C@H](C)c2cccc(C(F)F)c2F)c2cc(P3(=O)CCCC3)c(C)nc2n1` [Example 126, 1-[4-{{(1R)-1-[3-(difluoromethyl)-2-fluorophenyl]ethyl}amino)-2,7-dimethylpyrido[2,3-d]pyrimidin-6-yl]-1lambda^5-phospholan-1-one] the figure was 9.24 nM; with `Cc1nc(N[C@H](C)c2cccc(C(F)F)c2F)c2cc(P3(=O)CCCC3)ccc2n1` [Example 127, 1-[4-{{(1R)-1-[3-(difluoromethyl)-2-fluorophenyl]ethyl}amino)-2-methylquinazolin-6-yl]-1lambda^5-phospholan-1-one], 23.4 nM; with `Cc1nc(N[C@H](C)c2cccc(C(F)F)c2F)c2cc(P(C)(C)=O)ccc2n1` [Example 128, N-{(1R)-1-[3-(difluoromethyl)-2-fluorophenyl]ethyl}-6-(dimethylphosphoryl)-2-methylquinazolin-4-amine], 20.9 nM.
As for `Cc1nc(N[C@H](C)c2cccc(C(F)F)c2F)c2cc(P(=O)(C(C)C)C(C)C)c(C)nc2n1` [Example 129, N-{(1R)-1-[3-(difluoromethyl)-2-fluorophenyl]ethyl}-6-[di(propan-2-yl)phosphoryl]-2,7-dimethylpyrido[2,3-d]pyrimidin-4-amine], the 50% inhibitory concentration (IC50) is 132 nM.
`CCP(C)(=O)c1cc2c(N[C@H](C)c3cccc(C(F)(F)CO)c3F)nc(C)nc2cn1` (stereo partly drawn) [Example 130, 2-{3-[(1R)-1-{{6-[ethyl(methyl)phosphoryl]-2-methylpyrido[3,4-d]pyrimidin-4-yl}amino)ethyl]-2-fluorophenyl}-2,2-difluoroethan-1-ol]: the IC50 came out at 16.1 nM.
Under `[2H]C([2H])([2H])[C@]([2H])(Nc1nc(C)nc2cnc(P3(=O)CCN(C(C)=O)CC3)cc12)c1cccc(C(F)(F)F)c1C` [Example 138, 1-acetyl-4-(2-methyl-4-{[(1S)-1-[2-methyl-3-(trifluoromethyl)phenyl](^2H4)ethyl]amino}pyrido[3,4-d]pyrimidin-6-yl)-1,4lambda^5-azaphosphinan-4-one] stands 6.01 nM.
Under `COCC(F)(F)c1cccc([C@@H](C)Nc2nc(C)nc3cnc(P4(=O)CCN(C(C)=O)CC4)cc23)c1F` [Example 139, 1-acetyl-4-[4-({(1R)-1-[3-(1,1-difluoro-2-methoxyethyl)-2-fluorophenyl]ethyl}amino)-2-methylpyrido[3,4-d]pyrimidin-6-yl]-1,4lambda^5-azaphosphinan-4-one] stands 5.4 nM; under `COC(C)(C)C(F)(F)c1cccc([C@@H](C)Nc2nc(C)nc3cnc(P4(=O)CCN(C(C)=O)CC4)cc23)c1F` [Example 140, 1-acetyl-4-[4-({(1R)-1-[3-(1,1-difluoro-2-methoxy-2-methylpropyl)-2-fluorophenyl]ethyl}amino)-2-methylpyrido[3,4-d]pyrimidin-6-yl]-1,4lambda^5-azaphosphinan-4-one], 11.4 nM.
As for `CC(=O)N1CCP(=O)(c2cc3c(N[C@H](C)c4cccc(C(C)(F)F)c4)nc(C)nc3cn2)CC1` [Example 141, 1-acetyl-4-[4-({(1R)-1-[3-(1,1-difluoroethyl)phenyl]ethyl}amino)-2-methylpyrido[3,4-d]pyrimidin-6-yl]-1,4lambda^5-azaphosphinan-4-one], the half-inhibitory concentration (IC50) was determined as 12.8 nM.
